Laboratory results as given in publication PMC8667888, “Discovery of a novel Aurora B inhibitor GSK650394 with potent anticancer and anti-aspergillus fumigatus dual efficacies in vitro” (Journal of Enzyme Inhibition and Medicinal Chemistry, 2021).
Several values for one entry are separate records, joined by “and”; a condition that tells them apart may be missing. Identical values can stand only once.

What was measured:
Af.Aurora B [1] = biological target: T1, Af.Aurora B (Aspergillus fumigatus, UniProt B0XW52); assay: In vitro kinase assay (histone H3 phosphorylation), Af.Aurora B; format: biochemical; details: Western blot
Procedure: (§1) The in vitro kinase assay was performed as previously described. The kinase activity of recombinant Aurora B was assayed by incubating 200 nM purified Aurora B/INCENP protein with 100 µM ATP and 6 µg bulk histones (from calf thymus, Sigma-Aldrich) in kinase buffer containing 50 mM Tris-HCl, pH7.4, 100 mM NaCl, 10 mM MgCl2, 1 mM DTT and 0.1% Tween20. After 15-min incubation at 30 °C, the reaction was quenched by SDS-sample buffer, separated on SDS-PAGE, and immunoblotted with anti-histone H3 and anti-histone H3 phospho-Ser10 (pS10) antibodies. The blots were scanned and quantified with the ChemiDoc™ Touch imaging system (Bio-rad). To investigate the compounds’ inhibitory effect, Aurora B was pre-incubated with DMSO or various concentrations of drugs for 15 min at room temperature and the reactions were then initialised by the addition of ATP and histone substrates.

[2] = tested on: endogenous Aurora B in HepG2 cells; assay: Histone H3 Ser10 phosphorylation in HepG2 cells (immunoblot); format: cell-based, human; details: HepG2, 9 h after release from thymidine arrest
Procedure: (§2) HepG2 and HeLa cells were cultured in DMEM and RPMI-1640, respectively, supplemented with 10% foetal bovine serum in 37 °C and 5% CO2. G1/S synchronisation was carried out by treating cells with 2 mM of thymidine for 19 h. […] Subsequently, cells were harvested and subjected to immunoblotting or flow cytometric analysis. For flow cytometry assay, cells were trypsinized, washed once with PBS, and then fixed with cold 75% ethanol. Fixed cells were washed with PBS and resuspended in PBS containing the propidium iodide (Sigma) DNA staining solution, for 30 min at 37 °C. Then, samples were analysed using the Cytoflex cytometer (Beckman Coulter, USA) and the data were processed with the Flow Jo software.

human Aurora B [3] = biological target: T2, human Aurora B (Homo sapiens, UniProt Q96GD4); assay: In vitro kinase assay (histone H3 Ser10 phosphorylation), human Aurora B; format: biochemical; details: Western blot
T2 construct: the Hs.Aurora B kinase domain (aa.70–344) was co-expressed in E. coli cells; made in house; host or cells: E. coli BL21 (DE3) pLysS
T2 sequence (Q96GD4 70-344): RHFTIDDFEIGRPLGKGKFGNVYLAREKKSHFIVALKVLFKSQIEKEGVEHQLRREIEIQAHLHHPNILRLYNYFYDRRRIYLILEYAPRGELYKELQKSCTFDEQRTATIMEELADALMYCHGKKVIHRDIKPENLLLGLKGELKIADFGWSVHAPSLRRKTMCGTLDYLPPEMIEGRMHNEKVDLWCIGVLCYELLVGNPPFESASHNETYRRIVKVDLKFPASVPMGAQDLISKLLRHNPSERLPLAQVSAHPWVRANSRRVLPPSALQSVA
T2 sequence (Q9NQS7 835-904 partner limits assumed): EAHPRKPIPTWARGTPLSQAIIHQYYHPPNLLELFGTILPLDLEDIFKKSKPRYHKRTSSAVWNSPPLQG
Procedure: as §1

Hela = assay: MTT cell proliferation assay, Hela; format: cell-based; details: Homo sapiens, read-out: IC50, inhibition of proliferation
Procedure: (§3) MTT assay was conducted for cell proliferation analysis. Cells were cultured in 96-well plates (6 × 10^3/well) and treated with drugs or left untreated for 24–72 h. After treatment, cells were incubated with MTT solution (0.5 mg/mL) for 4 h at 37 °C. Then, the reactions were terminated by DMSO and the optical densities were measured by absorbance at 570 nm.

V91A Aurora B = biological target: T3, V91A Aurora B (Homo sapiens, UniProt Q96GD4, V91A); assay: Luciferase-coupled ATP assay, V91A mutant Aurora B; format: biochemical
T3 construct: the Hs.Aurora B kinase domain (aa.70–344) was co-expressed in E. coli cells; made in house; host or cells: E. coli BL21 (DE3) pLysS
T3 sequence (Q96GD4 70-344 V91A): as the sequence (Q96GD4 70-344) above, with V22A counted along it
T3 sequence (Q9NQS7 835-904 partner limits assumed): as the sequence (Q9NQS7 835-904 partner limits assumed) above
Procedure: (§4) A luciferase-based luminescence assay was utilised to determine the ATPase activity of Aurora B according to the manufacture’s protocols (Promega). Briefly, the Aurora B protein was incubated with 10 µM ATP in the absence or presence of various drugs at 30 °C, in a kinase buffer containing 50 mM Tris-HCl, pH7.4, 100 mM NaCl, 10 mM MgCl2, 1 mM DTT, and 0.1% Tween20. At the end of the reaction, the Kinase-Glo reagent (Promega) was added and the ATPase activity was evaluated by luminescence measurement on the microplate reader (SpectraMax-L, Molecular Devices).

MCF-7 = assay: MTT cell proliferation assay, MCF-7; format: cell-based; details: Homo sapiens, MCF7; MCF-7, MTT; read-out: IC50, inhibition of proliferation
Procedure: as §3

HepG2 = assay: MTT cell proliferation assay, HepG2; format: cell-based; details: Homo sapiens, read-out: IC50, inhibition of proliferation
Procedure: as §3

Af.Aurora B [4] = biological target: T1, Af.Aurora B; assay: Luciferase-coupled ATP assay (ATPase activity), Af.Aurora B; format: biochemical; details: IC50, inhibition of ATPase activity of Af.Aurora B, recombinant Af.Aurora B, n = 3
Procedure: (§5) The pGEX-dual expression plasmid containing human (Hs.) Aurora B kinase domain (aa.54–344) and a C-terminal fragment of Hs.INCENP (aa.835–904) was obtained from Prof. Hongtao Yu (Department of Life Science, Westlake University). The cDNAs of Af.Aurora B kinase domain (aa.1–396, GenBank accession no. EDP54304.1) and the C-terminal fragment of Af.INCENP (aa.1200–1297, GenBank accession no. XP_033417438.1) was synthesised in Union Biotech (China). Protein expression and purification were performed as previously described. Briefly, The recombinant proteins of Aurora B and INCENP were coexpressed in BL21 (DE3) pLysS competent cells. For protein purification, cells co-expressing GST-INCENP and Aurora B proteins were resuspended with lysis buffer containing 50 mM Tris-HCl, pH 8.0, 200 mM NaCl, 5% glycerol, and 0.05% Triton X-100. Cells were disrupted by French Pressure (Union Biotech, China) and the supernatants were collected after centrifugation. The Aurora B/Hs.INCENP complex proteins were pooled through Glutathione columns (Smart-Lifesciences, China). […]
(§6) A luciferase-based luminescence assay was utilised to determine the ATPase activity of Aurora B according to the manufacture’s protocols (Promega). […] At the end of the reaction, the Kinase-Glo reagent (Promega) was added and the ATPase activity was evaluated by luminescence measurement on the microplate reader (SpectraMax-L, Molecular Devices).

Aspergillus fumigatus = assay: Anti-Aspergillus fumigatus plate assay; format: cell-based; details: 37 °C, 30 h
Procedure: A plate assay was carried out to assess the growth rate of Aspergillus fumigatus. A specified amount of Aspergillus fumigatus spores were inoculated on the centre of the plate containing solid glucose minimal medium in the absence or presence of drugs. After further incubation for 30 h at 37 °C, the growth rate was determined by measuring the diameter of Aspergillus fumigatus clonies on each plate.

HELF = assay: MTT cell proliferation assay, HELF; format: cell-based; details: read-out: IC50, inhibition of proliferation
Procedure: as §3

human Aurora B [5] = biological target: T2, human Aurora B; assay: Luciferase-coupled ATP assay (ATPase activity), human Aurora B; format: biochemical
Procedure: as §5, §6

[6] = tested on: endogenous Aurora B in HeLa cells; assay: Histone H3 Ser10 phosphorylation in HeLa cells (immunoblot); format: cell-based, human; details: 9 h after release from thymidine arrest, vs control cells
Procedure: as §2

LO2 = assay: MTT cell proliferation assay, LO2; format: cell-based; details: Homo sapiens, L02, read-out: IC50, inhibition of proliferation
Procedure: as §3

human Haspin = biological target: T4, human Haspin (Homo sapiens, UniProt Q8TF76); assay: Luciferase-coupled ATP assay (ATPase activity), human Haspin; format: biochemical; details: read-out: IC50, inhibition of human Haspin ATPase activity
T4 sequence (Q8TF76 1-798): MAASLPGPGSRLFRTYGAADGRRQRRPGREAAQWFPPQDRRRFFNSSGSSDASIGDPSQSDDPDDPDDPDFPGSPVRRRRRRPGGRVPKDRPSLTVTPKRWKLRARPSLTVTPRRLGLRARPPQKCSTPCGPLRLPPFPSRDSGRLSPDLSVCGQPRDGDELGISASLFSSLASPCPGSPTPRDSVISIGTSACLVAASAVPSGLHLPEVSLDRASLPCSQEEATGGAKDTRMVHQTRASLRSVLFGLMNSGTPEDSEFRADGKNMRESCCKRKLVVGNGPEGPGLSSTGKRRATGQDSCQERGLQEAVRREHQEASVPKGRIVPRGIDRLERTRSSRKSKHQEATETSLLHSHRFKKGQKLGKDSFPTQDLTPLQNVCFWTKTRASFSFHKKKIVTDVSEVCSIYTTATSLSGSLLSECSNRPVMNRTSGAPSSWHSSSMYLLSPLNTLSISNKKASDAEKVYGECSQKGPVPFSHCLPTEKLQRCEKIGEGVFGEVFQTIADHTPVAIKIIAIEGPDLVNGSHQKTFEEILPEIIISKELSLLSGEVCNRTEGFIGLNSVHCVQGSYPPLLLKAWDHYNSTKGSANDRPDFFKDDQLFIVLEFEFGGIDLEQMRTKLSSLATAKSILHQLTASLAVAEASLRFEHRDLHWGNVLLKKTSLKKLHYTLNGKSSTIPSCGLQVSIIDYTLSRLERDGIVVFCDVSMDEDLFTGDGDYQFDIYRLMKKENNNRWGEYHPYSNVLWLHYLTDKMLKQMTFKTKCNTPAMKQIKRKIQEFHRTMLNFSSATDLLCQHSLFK
Procedure: as §4
Fig. S2 Effect of GSK650394 on human Haspin. (a) Comparison of ATPase activity between Aurora B and Haspin. The luminescence of ATP only control was normalized to 1.0. The values were normalized to ATP-only control set as 100% inhibition. Values are means ± S.E., n = 3. (b) Inhibition of human Haspin ATPase […]
(1 picture or pasted object on this page, not shown here)

[7] = tested on: acute myelogenous leukaemia (AML); design: method as in PMID 23763917; details: patients with AML, combined with low-dose cytosine arabinoside (LDAC); cited from earlier work

SMILES	effect on kinase activity of Af. Aurora B (Af.Aurora B [1])	concentration at which H3 phosphorylation is abolished [2] [µM]	effect on histone H3 phosphorylation ([2]; vs control cells)	effect on phosphorylation of histone H3 Ser10 by Aurora B (human Aurora B [3])	IC50 (Hela) [µM]	reduction of inhibitory effect by mutation of Val91 (V91A Aurora B; V91A vs wild type) [fold]	IC50 (V91A Aurora B; Val91 mutant, read-out: IC50, inhibition of V91A Aurora B) [µM]	IC50 (MCF-7) [µM]	IC50 (HepG2) [µM]	IC50 (Af.Aurora B [4])	growth rate of Aspergillus fumigatus (diameter of colonies) (Aspergillus fumigatus)	IC50 (HELF) [µM]	IC50 (human Aurora B [5]) [µM]	effect on histone H3 phosphorylation [6]	IC50 (LO2) [µM]	IC50 (human Haspin) [µM]	overall response rate [7] [%]
O=C(O)c1ccc(-c2c[nH]c3ncc(-c4ccccc4)cc23)cc1C1CCCC1 [GSK650394]	effectively inhibits	2.5	significant attenuation of histone H3 phosphorylation	diminish the phosphorylation of histone H3 Ser10	3.57 ± 1.38	> 20	> 100	1.42 ± 1.19	1.53 ± 1.88	1.29 µM and 1.3 µM	markedly inhibited in a dose-dependent manner	6.14 ± 1.33	5.68	significant attenuation of histone H3 phosphorylation	1.75 ± 1.28	41.4	
CCN(CCCOc1ccc2c(Nc3cc(CC(=O)Nc4cccc(F)c4)n[nH]3)ncnc2c1)CCOP(=O)(O)O [barasertib]																	45
